According to patent US8252841B2, “Methods of inhibiting bacterial virulence and compounds relating thereto” (priority 2007, dated 2012):
“And” between values parts separate entries of the source, which are not always exact repeats. Equal values may be shown once. “Also recorded” adds a separate entry of the source.

What was measured:
[1] = system: EHEC virulence genes (ler, eae, flhDC, stx2A); type: cell-based, enterohemorrhagic E. coli (EHEC)
F. tularensis strain LVS = type: cell-based, Francisella tularensis
[2] = system: Salmonella typhimurium strain SL1344; type: cell-based
[3] = system: bacterial cells (strain MCAmp); assay: Secondary screen with bla::lacZ chromosomal reporter to eliminate toxic compounds and general transcription inhibitors
[4] = Toxicology studies in mice; conditions: 20 mg/kg oral gavage daily for 5 days
QseC [5] = molecular target: T1, QseC (Escherichia coli O157:H7, UniProt Q8X524); assay: Binding of tritiated norepinephrine to QseC in liposomes; design: species or system E. coli; conditions: 5 μM tritiated NE
T1 construct: His (C); made in house; host or cells: E. coli (arabinose-induced, pVS155), nickel column purification

QseC [6] = molecular target: T1, QseC; assay: QseC autophosphorylation in liposomes; type: biochemical, E. coli
[7] = system: S. typhimurium strain SL1344; design: species or system mice (129×1/SvJ); conditions: mouse, in vivo
EHEC = system: EHEC; design: species or system New Zealand White rabbits; conditions: rabbit, in vivo
EHEC AE lesion formation = assay: Fluorescein actin staining (FAS) test, AE lesion formation on HeLa cells; type: cell-based, enterohemorrhagic E. coli (EHEC)
EHEC strain 8624 [8] = type: cell-based, enterohemorrhagic E. coli (EHEC)
sifA virulence gene = type: cell-based, Salmonella typhimurium
[9] = system: F. tularensis strain SCHU S4; conditions: mouse, in vivo
[10] = system: F. tularensis SCHU S4 in J774 murine macrophages; type: cell-based, Francisella tularensis
[11] = Pharmacokinetic analysis in mice
[12] = system: F. tularensis virulence genes; type: cell-based, Francisella tularensis
EHEC strain 8624 [13] = assay: Western blot of EHEC secreted proteins EspA and EspB; type: cell-based, enterohemorrhagic E. coli (EHEC); conditions: 50 μM epinephrine plus 5 nM or 5 pM LED209
[14] = system: β1, β2 and β3 adrenergic receptors; assay: Live-cell intracellular cAMP (EPAC-based BRET reporter) in HEK293 cells; design: species or system human
[15] = CD-1 female mice, 20, 10 and 5 mg/kg IV bolus

T1 sequence (Q8X524 whole entry): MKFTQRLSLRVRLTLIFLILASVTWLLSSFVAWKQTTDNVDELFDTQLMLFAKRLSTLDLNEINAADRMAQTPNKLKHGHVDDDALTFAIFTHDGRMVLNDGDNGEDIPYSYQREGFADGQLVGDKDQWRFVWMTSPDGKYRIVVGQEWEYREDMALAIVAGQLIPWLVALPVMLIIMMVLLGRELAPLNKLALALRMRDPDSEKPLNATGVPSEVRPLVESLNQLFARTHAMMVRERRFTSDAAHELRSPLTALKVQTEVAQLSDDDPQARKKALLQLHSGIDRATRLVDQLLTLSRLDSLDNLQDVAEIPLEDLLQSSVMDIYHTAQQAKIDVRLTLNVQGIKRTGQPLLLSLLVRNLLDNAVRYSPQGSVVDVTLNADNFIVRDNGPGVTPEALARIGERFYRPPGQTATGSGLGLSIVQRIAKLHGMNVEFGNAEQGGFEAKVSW

Question: For `CC(=O)Nc1ccc(S(=O)(=O)Nc2ccccc2)cc1`, which melting point is on record?
Answer: 209 to 210 °C

Question: With `O=S(=O)(Nc1ccccc1)c1ccc(NC(=S)Nc2ccccc2)cc1` [LED209, N-phenyl-4-[[(phenylamino)thioxomethyl]amino]benzenesulfonamide] as the compound, how does the “QseC-dependent virulence gene expression in response to AI-3” value [1] read?
Answer: inhibited

Question: And the “QseC-dependent virulence gene expression in response to epinephrine” value [1]?
Answer: inhibited

Question: What about the “expression of the stxAB genes” value [1] of the same compound?
Answer: decreases

Question: And the “trigger the EHEC SOS response” value [1]?
Answer: does not

Question: What about the F. tularensis growth (F. tularensis strain LVS) of the same compound?
Answer: does not hinder growth

Question: What about the “S. typhimurium growth in vitro” value [2] of the same compound?
Answer: does not hinder growth; also recorded: did not influence

Question: What about the “toxicity against bacterial cells” value [3] of the same compound?
Answer: no toxicity against bacterial cells

Question: What about the “pathology of duodenum, colon, liver, kidney, spleen and heart sections” value [4] of the same compound?
Answer: did not reveal any observable pathology

Question: What about the mice weights ([4]; vs vehicle) of the same compound?
Answer: no significant differences

Question: What about the organ weights ([4]; vs vehicle) of the same compound?
Answer: no significant differences in the organ weights

Question: And the “binding of norepinephrine to QseC” value (QseC [5]; 5 pM LED209)?
Answer: inhibits binding; also recorded: directly antagonized

Question: And the “binding of norepinephrine to QseC” value (QseC [5]; 5 fM LED209)?
Answer: does not

Question: What about the QseC autophosphorylation (QseC [6]; in response to 50 μM epinephrine, 5 pM LED209) of the same compound?
Answer: inhibited

Question: What about the “reduction of S. typhimurium cfus recovered from spleens and livers” value [7] of the same compound?
Answer: ~10 fold

Question: And the “survival of infected mice 24 hours after infection” value [7]?
Answer: 80%

Question: What about the “survival of infected mice up to day 12” value [7] of the same compound?
Answer: 20%

Question: What about the “EHEC colonization of the intestine” value (EHEC) of the same compound?
Answer: modest (and non-statistically significant) reduction

Question: And the “EHEC colonization, colon” value (EHEC; 20 mg/kg)?
Answer: only a mild non-statistically significance difference

Question: What about the “EHEC colonization, ileum and cecum” value (EHEC; 20 mg/kg) of the same compound?
Answer: no differences between treated and untreated animals

Question: What about the “EHEC AE lesion formation on cultured epithelial cells” value (EHEC AE lesion formation; 5 pM) of the same compound?
Answer: abolished

Question: What about the “AE lesions (pedestals)” value (EHEC AE lesion formation; 5 μM and 5 pM) of the same compound?
Answer: There are no pedestals

Question: And the EHEC growth (EHEC strain 8624 [8])?
Answer: does not hinder growth; also recorded: does not kill or hinder EHEC growth

Question: And the “expression of the sifA virulence gene” value (sifA virulence gene)?
Answer: diminished

Question: And the “deaths of mice treated with LED209 alone” value ([9]; female, C3H HeN, po, 20 mg/kg)?
Answer: none of the mice treated with LED209 alone died

Question: What about the “survival of infected mice at 175 hours post-infection” value [9] of the same compound?
Answer: 60% and 75%

Question: What about the overt toxicity ([9]; po, 20 mg/kg) of the same compound?
Answer: no overt toxicity

Question: What about the “survival of infected mice 9 days post-infection” value ([9]; po, 20 mg/kg) of the same compound?
Answer: 80%

Question: What about the “reduction of F. tularensis SCHU-S4 recovered from macrophages” value [10] of the same compound?
Answer: 10 fold

Question: And the AUC versus dose [11, 15]?
Answer: increases proportionally with dose

Question: What about the linearity of pharmacokinetics [11, 15] of the same compound?
Answer: linear

Question: And the bioavailability ([11]; female, CD-1, mouse, plasma, oral, 20 mg/kg)?
Answer: ~70%

Question: And the “oral bioavailability (in words)” value ([11]; mice)?
Answer: orally bioavailable

Question: And the “expression of F. tularensis virulence genes, including qseC” value [12]?
Answer: decreased

Question: And the “secretion of EspA and EspB” value (EHEC strain 8624 [13])?
Answer: inhibited the secretion

Question: What about the “block of activation by β-adrenergic-specific agonists (cAMP generation)” value ([14]; 5 μM with dobutamine, terbutaline or BRL37344) of the same compound?
Answer: nor does it block the activation

Question: And the “activation of β adrenergic receptors (cAMP generation)” value ([14]; 5 μM, no agonist)?
Answer: does not activate any of the 3 classes of β adrenergic receptors

Question: And the “interference with adrenergic signaling” value ([14]; live cell-based assays)?
Answer: does not interfere with mammalian adrenergic signaling; also recorded: not influence signaling

Question: Which “binding of norepinephrine to QseC” value (QseC [5]; 50 μM adrenergic antagonist) does the source give for `Cc1ccc(N(CC2=NCCN2)c2cccc(O)c2)cc1` [phentolamine, reference compound] here?
Answer: inhibited; also recorded: antagonizes this binding

Question: What about the QseC autophosphorylation (QseC [6]; adrenergic antagonist) of the same compound?
Answer: block QseC autophosphorylation

Question: Which “binding of norepinephrine to QseC” value (QseC [5]; 50 μM adrenergic antagonist) does the source give for `CC(C)NCC(O)COc1cccc2ccccc12` (centres unmarked) [propranolol, reference compound] here?
Answer: has no effect on QseC
